Data published in PubChem BioAssay (NCI).
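Interpolation was linear, between the two tested concentrations surrounding the appropriate level; five concentrations were tested over 48 hours in 96-well plates. The concentration for 50% growth inhibition is given as GI50. The concentration for full growth arrest is given as TGI.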

Tests used:
Assay in all cases: growth of human tumour cells (NCI), 48 h
[1] = system: BT-549 breast
[2] = system: LOX IMVI melanoma
[3] = system: MDA-MB-231 breast
[4] = system: MDA-MB-435
[5] = system: NCI-H226 lung
[6] = system: RPMI-8226 leukemia
[7] = system: SK-MEL-28 melanoma
[8] = system: SR leukemia
[9] = system: T-47D breast
[10] = system: UACC-257 melanoma

Cc1cc(NNC(=O)c2ccccc2O)nc(Nc2nc3ccccc3o2)n1
GI50 [1]: 4.52 µM | TGI [1]: 28.2 µM | GI50 [2]: 0.607 µM | TGI [2]: 4.41 µM | GI50 [3]: 0.71 µM | TGI [3]: 16.2 µM | GI50 [4]: 3.02 µM | TGI [4]: 17.8 µM | GI50 [5]: 1.66 µM | TGI [5]: 8.47 µM | GI50 [6]: 1.85 µM | TGI [6]: 13.9 µM | GI50 [7]: 1.64 µM | TGI [7]: 13.3 µM | GI50 [8]: 0.602 µM | TGI [8]: 7.31 µM | GI50 [9]: 2.92 µM | TGI [9]: 21.5 µM | GI50 [10]: 3.25 µM | TGI [10]: 11.5 µM

Cc1nnc(-c2ccc(C)c(-c3ccc(C(=O)NCc4ccc(Cl)cc4)cc3)c2)o1
GI50 [1]: 14.7 µM | TGI [1]: > 25 µM | GI50 [2]: > 25 µM | TGI [2]: > 25 µM | GI50 [3]: 10.4 µM | TGI [3]: > 25 µM | GI50 [4]: 7.15 µM | TGI [4]: > 25 µM | GI50 [5]: 6.93 µM | TGI [5]: > 25 µM | GI50 [6]: 10.2 µM | TGI [6]: > 25 µM | GI50 [7]: 14.3 µM | TGI [7]: > 25 µM | GI50 [8]: 11.9 µM | TGI [8]: > 25 µM | GI50 [9]: 4.13 µM | TGI [9]: > 19.2 µM | GI50 [10]: 8.07 µM | TGI [10]: > 25 µM

O=C(Nc1ccc2c(c1)OCO2)C(=O)c1c[nH]c2cc(F)ccc12
GI50 [1]: 9.35 µM | TGI [1]: 98.7 µM | GI50 [2]: 0.476 µM | TGI [2]: > 100 µM | GI50 [3]: 2.12 µM | TGI [3]: 25.4 µM | GI50 [4]: 0.854 µM | TGI [4]: > 100 µM | GI50 [5]: 3.74 µM | TGI [5]: 16.8 µM | GI50 [6]: 50 µM | TGI [6]: > 100 µM | GI50 [7]: 2.05 µM | TGI [7]: 5.54 µM | GI50 [8]: 2.85 µM | TGI [8]: 19.6 µM | GI50 [9]: 1.75 µM | TGI [9]: > 100 µM | GI50 [10]: 1.7 µM | TGI [10]: 15.5 µM

O=C1C(=O)N(c2cccc(C(F)(F)F)c2)C(=O)C(=O)C1c1nc2ccccc2s1
TGI [1]: > 100 µM | TGI [2]: > 100 µM | TGI [3]: > 100 µM | TGI [4]: > 100 µM | TGI [5]: > 100 µM | TGI [6]: > 100 µM | TGI [7]: > 100 µM | TGI [8]: 83.6 µM | TGI [9]: > 100 µM | TGI [10]: > 100 µM

O=S(=O)(Nc1ccc2ccccc2c1)c1ccc(-c2cnc(C3CC3)o2)cc1
GI50 [1]: 2.81 µM | TGI [1]: 19.3 µM | GI50 [2]: 0.725 µM | TGI [2]: 17.1 µM | GI50 [3]: 2.81 µM | TGI [3]: 14.2 µM | GI50 [4]: 0.214 µM | TGI [4]: 0.598 µM | GI50 [5]: 3.99 µM | TGI [5]: 20.4 µM | GI50 [6]: 3.18 µM | TGI [6]: 24.8 µM | GI50 [7]: 4.8 µM | TGI [7]: 20.8 µM | GI50 [8]: 0.377 µM | TGI [8]: > 100 µM | GI50 [9]: 1.01 µM | TGI [9]: 58.3 µM | GI50 [10]: 10.4 µM | TGI [10]: 31.5 µM

COc1ccc(/C=C2\CC(C)CC3C2=NN(c2ccccc2)C3c2ccc(OC)c(OC)c2)cc1OC (stereo not given)
GI50 [1]: 4.58 µM | TGI [1]: 79.7 µM | GI50 [2]: 2.19 µM | TGI [2]: 4.8 µM | GI50 [3]: 3.24 µM | TGI [3]: 13.2 µM | GI50 [4]: 3.2 µM | TGI [4]: > 100 µM | GI50 [5]: 3.09 µM | TGI [5]: 9.75 µM | GI50 [6]: 3.38 µM | TGI [6]: > 100 µM | GI50 [7]: 4.87 µM | TGI [7]: 18.3 µM | GI50 [8]: 2.82 µM | TGI [8]: 12.4 µM | GI50 [9]: 4.48 µM | TGI [9]: > 100 µM | GI50 [10]: 7.94 µM | TGI [10]: > 100 µM

CC(CCCC1SCC2NC(=O)NC21)C(=O)O (stereo not given)
TGI [1]: > 100 µM | TGI [2]: > 100 µM | TGI [3]: > 100 µM | TGI [4]: > 100 µM | TGI [5]: > 100 µM | TGI [6]: > 100 µM | TGI [7]: > 100 µM | TGI [8]: > 100 µM | TGI [9]: > 100 µM

O=C(Cn1c(C(=O)c2ccccc2)nc2ccccc21)c1ccc(F)cc1
GI50 [1]: 9.76 µM | TGI [1]: > 100 µM | GI50 [2]: 7.26 µM | TGI [2]: > 100 µM | GI50 [3]: 15.7 µM | TGI [3]: > 100 µM | GI50 [4]: 1.19 µM | GI50 [5]: > 100 µM | TGI [5]: > 100 µM | GI50 [6]: 3.47 µM | TGI [6]: > 52.5 µM | GI50 [7]: 7.07 µM | TGI [7]: > 100 µM | GI50 [8]: 1.21 µM | GI50 [9]: 3.38 µM | TGI [9]: > 100 µM | GI50 [10]: 74.3 µM | TGI [10]: > 100 µM

COC(=O)C1=C(C(=O)OC)C2OC1c1cc3ccccc3cc12
TGI [1]: 12 µM | TGI [2]: 30.5 µM | TGI [3]: 33.7 µM | TGI [4]: 18 µM | TGI [5]: 11.6 µM | TGI [6]: 5.41 µM | TGI [7]: 4.09 µM | TGI [8]: 3.55 µM | TGI [9]: 7.49 µM | TGI [10]: 17.5 µM

CC1CCc2c(c(CC3CC(=O)NC(=O)C3)nn2-c2ccccc2)C1 (stereo not given)
TGI [1]: > 100 µM | TGI [2]: > 100 µM | TGI [3]: > 100 µM | TGI [4]: > 100 µM | TGI [5]: > 100 µM | TGI [6]: > 100 µM | TGI [7]: > 100 µM | TGI [8]: > 100 µM | TGI [9]: > 100 µM | TGI [10]: > 100 µM

CCOc1c(C#N)c2c(N)ncnc2n1C1OC(CO)C(O)C1O (stereo not given)
GI50 [1]: 2.58 µM | TGI [1]: 19 µM | GI50 [2]: 2.98 µM | TGI [2]: > 100 µM | GI50 [3]: 6.15 µM | TGI [3]: > 82.9 µM | GI50 [4]: 3.15 µM | TGI [4]: 34.6 µM | GI50 [5]: 6.93 µM | TGI [5]: > 91.8 µM | GI50 [6]: 2.12 µM | TGI [6]: 9 µM | GI50 [7]: 2.52 µM | TGI [7]: 11.8 µM | GI50 [8]: 1.3 µM | TGI [8]: 5.5 µM | GI50 [9]: 1.98 µM | TGI [9]: 20.2 µM | GI50 [10]: 13.7 µM | TGI [10]: > 77.3 µM

CC[C@]12C=CCN3CC[C@@]4(c5ccc(OC)cc5N(C)[C@H]4[C@@](O)(C(=O)OC)[C@@H]1OC(=O)CCC(=O)N[C@H](Cc1c[nH]c4ccccc14)C(=O)OC)[C@@H]32
GI50 [1]: 7.68 µM | TGI [1]: 41 µM | GI50 [3]: 2.83 µM | TGI [3]: 9.54 µM | GI50 [4]: 5.42 µM | TGI [4]: 22.5 µM | GI50 [5]: 5.39 µM | TGI [5]: 27.5 µM | GI50 [6]: 3.63 µM | TGI [6]: 44.7 µM | GI50 [7]: 2.21 µM | TGI [7]: 5.44 µM | GI50 [8]: 3.55 µM | TGI [8]: > 100 µM | GI50 [9]: 11 µM | TGI [9]: 30.3 µM | GI50 [10]: 6 µM | TGI [10]: 23.1 µM

O=C(Nc1nc(-c2ccc(Cl)cc2)nc2c1sc(=S)n2-c1ccccc1)C(F)(F)F
GI50 [1]: 6.37 µM | TGI [1]: 38.2 µM | GI50 [2]: 2.43 µM | TGI [2]: 6.46 µM | GI50 [3]: 3.64 µM | TGI [3]: 12.5 µM | GI50 [4]: 5.4 µM | TGI [4]: > 100 µM | GI50 [5]: 2.89 µM | TGI [5]: 9.61 µM | GI50 [6]: 8.37 µM | TGI [6]: > 100 µM | GI50 [7]: 6.01 µM | TGI [7]: > 100 µM | GI50 [8]: 4.76 µM | TGI [8]: 20.1 µM | GI50 [9]: 2.05 µM | TGI [9]: 5.05 µM | GI50 [10]: 10.7 µM | TGI [10]: 60 µM

CCOC(=O)c1cc(-c2ccc(OC)c(OC)c2)[nH]c1N/N=C/c1c(Cl)cccc1Cl
GI50 [1]: 2.49 µM | TGI [1]: 12.5 µM | GI50 [2]: 3.6 µM | TGI [2]: 20.5 µM | GI50 [3]: 2.9 µM | TGI [3]: 8.84 µM | GI50 [4]: 0.307 µM | TGI [4]: 0.829 µM | GI50 [5]: 1.81 µM | TGI [5]: 9.36 µM | GI50 [6]: 3.31 µM | TGI [6]: > 37.5 µM | GI50 [7]: 1.12 µM | TGI [7]: > 100 µM | GI50 [8]: 0.41 µM | TGI [8]: 1.93 µM | GI50 [9]: 5.98 µM | TGI [9]: 55.4 µM | GI50 [10]: 13.2 µM | TGI [10]: > 71.9 µM
